Read-outs that look alike come from different tables or passages of the source.
Tests used:
Test in all cases: Kinase selectivity, scanMAX Kinase assay panel (DiscoverX), % control at 1 uM
Format in all cases: binding
[1] = molecular target: T1, scanMAX Kinase assay panel (Homo sapiens, UniProt Q05397); conditions: FAK; 1 uM; read-out: Percent Control (%)
T1 construct: purchased DiscoverX
Outline: (§1)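 Each kinase was first exposed to the test compound at 1 uM in DMSO. Signal was then normalised to positive and negative controls to give % control. Finally, any enzyme showing <35% control was judged inhibited.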

[2] = molecular target: T2, scanMAX Kinase assay panel (Homo sapiens, UniProt Q9Y463); conditions: DYRK1B; 1 uM; read-out: Percent Control (%)
T2 construct: purchased DiscoverX
Outline: as §1

[3] = molecular target: T3, scanMAX Kinase assay panel (Homo sapiens, UniProt Q8N4C8); conditions: MINK; 1 uM; read-out: Percent Control (%)
T3 construct: purchased DiscoverX
Outline: as §1

[4] = molecular target: T4, scanMAX Kinase assay panel (Homo sapiens, UniProt P00533, DEL752-759); conditions: EGFR (S752-I759del); 1 uM; read-out: Percent Control (%)
T4 construct: purchased DiscoverX
T4 sequence (P00533 with tags, fused parts or gaps DEL752-759): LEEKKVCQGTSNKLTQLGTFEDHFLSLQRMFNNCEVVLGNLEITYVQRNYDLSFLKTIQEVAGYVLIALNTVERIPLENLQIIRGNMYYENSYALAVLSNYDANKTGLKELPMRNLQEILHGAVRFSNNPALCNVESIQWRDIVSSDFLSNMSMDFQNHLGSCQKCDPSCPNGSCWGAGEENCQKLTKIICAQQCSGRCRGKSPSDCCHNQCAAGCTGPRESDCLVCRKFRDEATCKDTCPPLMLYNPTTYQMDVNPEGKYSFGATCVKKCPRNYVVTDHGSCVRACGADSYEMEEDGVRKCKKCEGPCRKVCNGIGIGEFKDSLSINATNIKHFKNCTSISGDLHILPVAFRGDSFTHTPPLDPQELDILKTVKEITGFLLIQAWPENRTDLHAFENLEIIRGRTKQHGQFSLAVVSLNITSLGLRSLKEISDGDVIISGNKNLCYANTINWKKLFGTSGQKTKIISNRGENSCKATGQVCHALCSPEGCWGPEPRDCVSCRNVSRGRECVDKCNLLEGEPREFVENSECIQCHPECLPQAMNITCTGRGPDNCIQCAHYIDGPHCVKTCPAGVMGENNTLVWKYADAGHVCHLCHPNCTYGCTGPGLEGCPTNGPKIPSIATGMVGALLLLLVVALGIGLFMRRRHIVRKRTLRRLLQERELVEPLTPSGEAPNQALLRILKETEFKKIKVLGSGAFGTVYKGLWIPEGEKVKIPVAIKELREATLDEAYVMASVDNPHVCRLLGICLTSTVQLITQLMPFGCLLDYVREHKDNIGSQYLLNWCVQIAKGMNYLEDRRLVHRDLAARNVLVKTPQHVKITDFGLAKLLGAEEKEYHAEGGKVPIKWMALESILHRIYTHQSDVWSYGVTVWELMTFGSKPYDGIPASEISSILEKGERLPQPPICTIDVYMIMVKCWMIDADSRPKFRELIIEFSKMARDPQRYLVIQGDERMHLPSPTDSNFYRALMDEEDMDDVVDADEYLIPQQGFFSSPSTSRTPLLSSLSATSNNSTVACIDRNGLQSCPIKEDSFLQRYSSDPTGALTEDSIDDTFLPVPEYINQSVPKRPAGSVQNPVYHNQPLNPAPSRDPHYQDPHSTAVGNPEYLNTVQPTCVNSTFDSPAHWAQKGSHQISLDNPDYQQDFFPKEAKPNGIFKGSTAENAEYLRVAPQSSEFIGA
Outline: as §1

[5] = molecular target: T5, scanMAX Kinase assay panel (Homo sapiens, UniProt P00519, F317L); conditions: 1 uM, read-out: Percent Control (%)
T5 construct: purchased DiscoverX
Outline: as §1

[6] = molecular target: T6, scanMAX Kinase assay panel (Homo sapiens, UniProt P51957); conditions: NEK4; 1 uM; read-out: Percent Control (%)
T6 construct: purchased DiscoverX
Outline: as §1

[7] = molecular target: T7, scanMAX Kinase assay panel (Homo sapiens, UniProt Q00537); conditions: PCTK2; 1 uM; read-out: Percent Control (%)
T7 construct: purchased DiscoverX
T7 sequence (Q00537 whole entry): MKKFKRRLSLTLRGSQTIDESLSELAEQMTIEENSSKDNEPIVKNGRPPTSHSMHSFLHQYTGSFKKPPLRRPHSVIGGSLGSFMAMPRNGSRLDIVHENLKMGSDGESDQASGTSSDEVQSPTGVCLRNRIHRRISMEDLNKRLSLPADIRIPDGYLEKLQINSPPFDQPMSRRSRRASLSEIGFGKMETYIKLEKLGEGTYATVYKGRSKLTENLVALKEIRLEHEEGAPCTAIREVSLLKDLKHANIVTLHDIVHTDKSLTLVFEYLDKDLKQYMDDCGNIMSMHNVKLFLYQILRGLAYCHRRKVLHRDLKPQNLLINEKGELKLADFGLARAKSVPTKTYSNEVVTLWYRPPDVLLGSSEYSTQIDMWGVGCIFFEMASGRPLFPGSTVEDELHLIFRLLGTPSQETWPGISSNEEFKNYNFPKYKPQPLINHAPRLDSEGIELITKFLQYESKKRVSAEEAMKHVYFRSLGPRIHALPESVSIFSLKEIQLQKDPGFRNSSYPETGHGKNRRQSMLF
Outline: as §1

[8] = molecular target: T8, scanMAX Kinase assay panel (Homo sapiens, UniProt P06241); conditions: FYN; 1 uM; read-out: Percent Control (%)
T8 construct: purchased DiscoverX
T8 sequence (P06241 whole entry): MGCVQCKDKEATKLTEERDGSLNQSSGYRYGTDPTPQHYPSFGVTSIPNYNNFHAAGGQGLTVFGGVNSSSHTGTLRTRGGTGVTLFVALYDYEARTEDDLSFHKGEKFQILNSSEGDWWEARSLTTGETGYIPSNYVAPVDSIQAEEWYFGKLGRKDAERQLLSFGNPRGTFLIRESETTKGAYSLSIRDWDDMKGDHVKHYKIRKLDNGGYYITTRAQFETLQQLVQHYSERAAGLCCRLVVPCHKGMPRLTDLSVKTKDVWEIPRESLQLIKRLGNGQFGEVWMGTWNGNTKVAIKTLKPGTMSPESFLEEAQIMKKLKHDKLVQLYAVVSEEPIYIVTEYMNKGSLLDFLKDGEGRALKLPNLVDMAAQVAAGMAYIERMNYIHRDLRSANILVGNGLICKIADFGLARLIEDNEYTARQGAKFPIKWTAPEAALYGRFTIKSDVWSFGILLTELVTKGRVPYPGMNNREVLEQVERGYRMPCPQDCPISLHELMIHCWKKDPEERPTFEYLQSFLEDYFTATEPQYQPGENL
Outline: as §1

[9] = molecular target: T9, scanMAX Kinase assay panel (Homo sapiens, UniProt Q16512); conditions: PKN1; 1 uM; read-out: Percent Control (%)
T9 construct: purchased DiscoverX
Outline: as §1

[10] = molecular target: T10, scanMAX Kinase assay panel (Homo sapiens, UniProt O00506); conditions: YSK1; 1 uM; read-out: Percent Control (%)
T10 construct: purchased DiscoverX
Outline: as §1

[11] = molecular target: T11, scanMAX Kinase assay panel (Homo sapiens, UniProt Q99683); conditions: ASK1; 1 uM; read-out: Percent Control (%)
T11 construct: purchased DiscoverX
T11 sequence (Q99683 1-1374): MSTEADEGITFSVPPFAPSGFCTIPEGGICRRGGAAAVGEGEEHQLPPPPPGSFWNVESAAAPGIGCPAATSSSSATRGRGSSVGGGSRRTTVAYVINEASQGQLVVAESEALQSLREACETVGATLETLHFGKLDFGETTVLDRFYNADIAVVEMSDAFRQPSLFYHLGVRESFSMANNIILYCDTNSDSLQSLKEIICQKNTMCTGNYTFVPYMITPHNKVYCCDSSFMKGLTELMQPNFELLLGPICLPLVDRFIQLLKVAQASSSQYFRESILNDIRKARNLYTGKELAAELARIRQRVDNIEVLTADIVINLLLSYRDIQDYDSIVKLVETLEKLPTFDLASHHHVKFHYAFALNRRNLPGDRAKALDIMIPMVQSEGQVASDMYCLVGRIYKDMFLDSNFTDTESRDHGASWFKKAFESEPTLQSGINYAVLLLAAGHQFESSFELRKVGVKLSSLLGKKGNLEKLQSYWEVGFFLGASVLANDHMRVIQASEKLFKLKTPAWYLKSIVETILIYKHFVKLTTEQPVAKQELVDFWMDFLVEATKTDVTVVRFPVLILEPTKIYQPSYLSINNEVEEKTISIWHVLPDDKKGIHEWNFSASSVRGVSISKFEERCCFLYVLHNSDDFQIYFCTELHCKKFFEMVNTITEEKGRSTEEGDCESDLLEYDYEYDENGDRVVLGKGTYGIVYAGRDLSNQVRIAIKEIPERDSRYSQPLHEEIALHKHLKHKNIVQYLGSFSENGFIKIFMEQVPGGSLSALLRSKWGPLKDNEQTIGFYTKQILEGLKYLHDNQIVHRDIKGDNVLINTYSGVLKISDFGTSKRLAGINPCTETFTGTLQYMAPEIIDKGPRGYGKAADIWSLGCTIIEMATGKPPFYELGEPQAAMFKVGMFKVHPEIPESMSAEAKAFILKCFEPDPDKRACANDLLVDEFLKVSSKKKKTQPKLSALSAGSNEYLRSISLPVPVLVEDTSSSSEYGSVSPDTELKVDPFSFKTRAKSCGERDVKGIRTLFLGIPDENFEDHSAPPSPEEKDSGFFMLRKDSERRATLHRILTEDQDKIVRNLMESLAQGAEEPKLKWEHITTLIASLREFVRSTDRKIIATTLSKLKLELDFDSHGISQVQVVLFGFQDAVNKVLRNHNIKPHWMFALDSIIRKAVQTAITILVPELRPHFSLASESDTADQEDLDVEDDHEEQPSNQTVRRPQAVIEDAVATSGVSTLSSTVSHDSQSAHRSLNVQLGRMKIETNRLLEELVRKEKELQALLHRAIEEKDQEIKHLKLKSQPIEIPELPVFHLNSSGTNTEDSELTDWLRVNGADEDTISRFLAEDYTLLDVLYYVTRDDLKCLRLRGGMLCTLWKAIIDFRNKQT
Outline: as §1

[12] = molecular target: T12, scanMAX Kinase assay panel (Homo sapiens, UniProt Q9Y5S2); conditions: MRCKB; 1 uM; read-out: Percent Control (%)
T12 construct: purchased DiscoverX
T12 sequence (Q9Y5S2 whole entry): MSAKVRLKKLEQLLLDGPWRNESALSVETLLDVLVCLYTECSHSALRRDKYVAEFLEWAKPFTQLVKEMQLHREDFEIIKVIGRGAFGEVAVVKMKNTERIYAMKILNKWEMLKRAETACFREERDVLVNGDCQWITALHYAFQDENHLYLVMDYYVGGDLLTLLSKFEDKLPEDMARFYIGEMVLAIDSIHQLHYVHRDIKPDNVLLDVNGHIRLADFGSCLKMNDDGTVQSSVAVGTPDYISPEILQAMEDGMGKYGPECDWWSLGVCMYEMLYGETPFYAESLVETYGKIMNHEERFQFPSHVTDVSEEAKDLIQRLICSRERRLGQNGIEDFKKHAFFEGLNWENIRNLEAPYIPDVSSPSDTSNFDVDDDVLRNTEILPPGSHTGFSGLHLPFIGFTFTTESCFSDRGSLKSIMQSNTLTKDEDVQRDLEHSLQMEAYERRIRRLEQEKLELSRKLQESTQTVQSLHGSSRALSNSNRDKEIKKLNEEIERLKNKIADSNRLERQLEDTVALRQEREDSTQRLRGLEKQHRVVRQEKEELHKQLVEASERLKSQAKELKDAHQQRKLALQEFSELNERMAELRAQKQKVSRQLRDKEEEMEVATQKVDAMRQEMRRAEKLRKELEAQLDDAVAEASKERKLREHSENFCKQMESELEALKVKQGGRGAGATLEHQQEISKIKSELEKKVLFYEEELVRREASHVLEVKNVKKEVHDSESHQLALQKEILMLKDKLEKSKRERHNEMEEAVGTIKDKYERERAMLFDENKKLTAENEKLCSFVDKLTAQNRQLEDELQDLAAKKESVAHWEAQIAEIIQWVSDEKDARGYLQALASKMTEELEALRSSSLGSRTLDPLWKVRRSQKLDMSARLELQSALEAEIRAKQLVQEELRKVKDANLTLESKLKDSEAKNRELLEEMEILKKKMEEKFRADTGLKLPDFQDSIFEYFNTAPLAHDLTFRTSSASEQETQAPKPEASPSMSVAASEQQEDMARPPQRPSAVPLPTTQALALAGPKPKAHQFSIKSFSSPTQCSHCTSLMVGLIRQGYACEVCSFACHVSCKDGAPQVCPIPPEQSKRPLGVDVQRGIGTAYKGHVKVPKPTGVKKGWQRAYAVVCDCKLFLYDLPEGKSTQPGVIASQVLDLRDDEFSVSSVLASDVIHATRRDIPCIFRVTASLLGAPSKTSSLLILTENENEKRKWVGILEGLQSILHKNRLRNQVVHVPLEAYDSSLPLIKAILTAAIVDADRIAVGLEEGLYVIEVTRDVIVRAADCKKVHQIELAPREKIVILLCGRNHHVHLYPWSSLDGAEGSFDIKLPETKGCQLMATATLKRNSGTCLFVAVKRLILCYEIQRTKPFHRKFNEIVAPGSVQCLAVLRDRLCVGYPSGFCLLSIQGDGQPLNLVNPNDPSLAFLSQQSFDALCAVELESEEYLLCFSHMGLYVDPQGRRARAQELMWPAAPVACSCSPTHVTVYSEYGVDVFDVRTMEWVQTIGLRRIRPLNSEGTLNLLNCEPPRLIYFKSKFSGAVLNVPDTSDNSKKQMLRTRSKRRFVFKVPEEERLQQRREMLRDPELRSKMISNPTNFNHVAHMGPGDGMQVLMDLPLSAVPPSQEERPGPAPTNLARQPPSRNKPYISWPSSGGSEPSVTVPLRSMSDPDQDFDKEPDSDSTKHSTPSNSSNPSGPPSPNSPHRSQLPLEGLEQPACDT
Outline: as §1

T1 sequence (Q05397 whole entry): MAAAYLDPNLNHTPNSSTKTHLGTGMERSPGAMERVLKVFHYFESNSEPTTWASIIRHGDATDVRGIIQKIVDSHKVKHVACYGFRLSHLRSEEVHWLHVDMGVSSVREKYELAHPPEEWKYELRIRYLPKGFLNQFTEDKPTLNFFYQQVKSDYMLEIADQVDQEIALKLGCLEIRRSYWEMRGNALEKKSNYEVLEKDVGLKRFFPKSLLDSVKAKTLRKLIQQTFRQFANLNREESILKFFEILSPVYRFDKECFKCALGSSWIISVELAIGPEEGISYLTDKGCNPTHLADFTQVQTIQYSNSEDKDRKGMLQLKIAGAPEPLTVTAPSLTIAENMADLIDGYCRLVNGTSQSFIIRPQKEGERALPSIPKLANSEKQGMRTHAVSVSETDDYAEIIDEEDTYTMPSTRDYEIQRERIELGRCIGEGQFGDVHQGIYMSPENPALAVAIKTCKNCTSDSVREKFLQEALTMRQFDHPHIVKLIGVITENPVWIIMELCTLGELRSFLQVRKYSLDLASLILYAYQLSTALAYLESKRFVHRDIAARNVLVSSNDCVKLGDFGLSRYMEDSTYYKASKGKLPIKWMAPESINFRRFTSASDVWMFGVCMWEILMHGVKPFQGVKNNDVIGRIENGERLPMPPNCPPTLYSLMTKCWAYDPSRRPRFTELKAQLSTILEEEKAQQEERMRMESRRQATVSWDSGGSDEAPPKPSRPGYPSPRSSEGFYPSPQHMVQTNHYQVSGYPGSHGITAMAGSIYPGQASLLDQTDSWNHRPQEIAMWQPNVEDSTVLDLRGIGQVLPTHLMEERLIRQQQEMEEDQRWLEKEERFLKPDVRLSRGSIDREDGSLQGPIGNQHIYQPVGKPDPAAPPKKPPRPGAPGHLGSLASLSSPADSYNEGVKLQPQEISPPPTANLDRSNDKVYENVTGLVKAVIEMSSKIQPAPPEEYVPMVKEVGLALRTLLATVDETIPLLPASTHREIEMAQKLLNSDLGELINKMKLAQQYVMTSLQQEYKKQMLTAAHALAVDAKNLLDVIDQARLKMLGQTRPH

Cc1ccc(C(=O)Nc2ccc(CN3CCN(C)CC3)c(C(F)(F)F)c2)cc1C#Cc1cnc2c(Nc3cnn(C)c3)cccn12 [Example 1, 4-methyl-3-((8-((1-methyl-1H-pyrazol-4-yl)amino)imidazo[1,2-a]pyridin-3-yl)ethynyl)-N-(4-((4-methylpiperazin-1-yl)methyl)-3-(trifluoromethyl)phenyl)benzamide]
remaining binding at 1 µM [1]: 39% | remaining binding at 1 µM [2]: 93% | remaining binding at 1 µM [3]: 2% | remaining binding at 1 µM [4]: 7% | remaining binding at 1 µM ([5]; ABL1 (F317L)-nonphosphorylated): 9% | remaining binding at 1 µM ([5]; ABL1 (F317L)-phosphorylated): 2% | remaining binding at 1 µM [6]: 9% | remaining binding at 1 µM [7]: 19% | remaining binding at 1 µM [8]: 1% | remaining binding at 1 µM [9]: 78% | remaining binding at 1 µM [10]: 90% | remaining binding at 1 µM [11]: 100% | remaining binding at 1 µM [12]: 99%

Cc1cn(-c2cc(NC(=O)c3ccc(C)c(C#Cc4cnc5c(Nc6cnn(C)c6)cccn45)c3)cc(C(F)(F)F)c2)cn1 [Example 12, 4-methyl-N-(3-(4-methyl-1H-imidazol-1-yl)-5-(trifluoromethyl)phenyl)-3-((8-((1-methyl-1H-pyrazol-4-yl)amino)imidazo[1,2-a]pyridin-3-yl)ethynyl)benzamide]
remaining binding at 1 µM [1]: 10% | remaining binding at 1 µM [2]: 100% | remaining binding at 1 µM [3]: 44% | remaining binding at 1 µM [4]: 8% | remaining binding at 1 µM ([5]; ABL1 (F317L)-nonphosphorylated): 3% | remaining binding at 1 µM ([5]; ABL1 (F317L)-phosphorylated): 6% | remaining binding at 1 µM [6]: 61% | remaining binding at 1 µM [7]: 98% | remaining binding at 1 µM [8]: 15% | remaining binding at 1 µM [9]: 82% | remaining binding at 1 µM [10]: 86% | remaining binding at 1 µM [11]: 95% | remaining binding at 1 µM [12]: 94%

Cc1ccc(NC(=O)C2(C(=O)Nc3ccc(F)cc3)CC2)cc1C#Cc1cnc2c(Nc3cnn(C(C)C)c3)cccn12 [Example 78]
remaining binding at 1 µM [1]: 96% | remaining binding at 1 µM [2]: 99% | remaining binding at 1 µM [3]: 87% | remaining binding at 1 µM [4]: 100% | remaining binding at 1 µM ([5]; ABL1 (F317L)-nonphosphorylated): 16% | remaining binding at 1 µM ([5]; ABL1 (F317L)-phosphorylated): 85% | remaining binding at 1 µM [6]: 100% | remaining binding at 1 µM [7]: 100% | remaining binding at 1 µM [8]: 84% | remaining binding at 1 µM [9]: 83% | remaining binding at 1 µM [10]: 100% | remaining binding at 1 µM [11]: 100% | remaining binding at 1 µM [12]: 100%

From patent US10870647B2, “Imidazopyridine derivative, method for preparing same, and pharmaceutical composition containing same as active ingredient for preventing or treating cancer” (DAEGU-GYEONGBUK MEDICAL INNOVATION FOUNDATION, priority 2016, dated 2020)
